Source: ChEMBL document CHEMBL5729431, “Benzisoxazole sulfonamide derivatives” (2022)

Assays:
[1] = molecular target: Histone acetyltransferase KAT6A (Homo sapiens, UniProt Q92794); assay: (§1) Kat6A Assay 1: A. Compound preparation 1. Prepare 10 mM stock solutions in 100% DMSO from solid material 2. Serial dilute 10 mM, 1 mM or 0.1 mM compound stocks 3-fold in 100% DMSO for 11-point dose responseB. Reagent preparation 1. Prepare 1× assay buffer containing 10 mM Tris HCL pH 8.0, 2.5 mM NaCl, 0.5 mM EDTA, 0.005% BSG and 0.02% Tween-20 2. Dilute Histone peptide (CPC Scientific) and AcCoA (Sigma) together in assay buffer to 2×. 3. Dilute KAT enzyme in assay buffer to 2×.C. Enzyme reaction 1. Final reaction conditions for each KAT assay in a 20 ul assay reaction volume: ii. KAT6A 15 nM, 1 uM AcCoA, 2 uM H3 1-21 peptide, 45-minute reaction 2. Add 0.5 ul of diluted compound to the assay plate (384-well V-bottom polypropylene plates) or 0.5 ul of DMSO for control wells. 3. Add 10 ul of 2× Histone peptide/2×AcCoA mix to the assay plate. 4. Add 10 ul of 2× enzyme to the assay plate. 5. Stop the reaction after the indicated time with the addition of 2 ul of 5% formic acid 6. Each reaction was analyzed using self-assembled monolayer desorption/ionization time-of-flight mass spectrometry (Mrksich, Milan (2008) Mass Spectrometry of Self-Assembled Monolayers: A New Tool for Molecular Surface Science ACS Nano 2008 2 (1), 7-18; SAMDI Tech, Inc. (Chicago, Ill.)). 7. […]
Chain of Histone acetyltransferase KAT6A (Q92794 whole entry): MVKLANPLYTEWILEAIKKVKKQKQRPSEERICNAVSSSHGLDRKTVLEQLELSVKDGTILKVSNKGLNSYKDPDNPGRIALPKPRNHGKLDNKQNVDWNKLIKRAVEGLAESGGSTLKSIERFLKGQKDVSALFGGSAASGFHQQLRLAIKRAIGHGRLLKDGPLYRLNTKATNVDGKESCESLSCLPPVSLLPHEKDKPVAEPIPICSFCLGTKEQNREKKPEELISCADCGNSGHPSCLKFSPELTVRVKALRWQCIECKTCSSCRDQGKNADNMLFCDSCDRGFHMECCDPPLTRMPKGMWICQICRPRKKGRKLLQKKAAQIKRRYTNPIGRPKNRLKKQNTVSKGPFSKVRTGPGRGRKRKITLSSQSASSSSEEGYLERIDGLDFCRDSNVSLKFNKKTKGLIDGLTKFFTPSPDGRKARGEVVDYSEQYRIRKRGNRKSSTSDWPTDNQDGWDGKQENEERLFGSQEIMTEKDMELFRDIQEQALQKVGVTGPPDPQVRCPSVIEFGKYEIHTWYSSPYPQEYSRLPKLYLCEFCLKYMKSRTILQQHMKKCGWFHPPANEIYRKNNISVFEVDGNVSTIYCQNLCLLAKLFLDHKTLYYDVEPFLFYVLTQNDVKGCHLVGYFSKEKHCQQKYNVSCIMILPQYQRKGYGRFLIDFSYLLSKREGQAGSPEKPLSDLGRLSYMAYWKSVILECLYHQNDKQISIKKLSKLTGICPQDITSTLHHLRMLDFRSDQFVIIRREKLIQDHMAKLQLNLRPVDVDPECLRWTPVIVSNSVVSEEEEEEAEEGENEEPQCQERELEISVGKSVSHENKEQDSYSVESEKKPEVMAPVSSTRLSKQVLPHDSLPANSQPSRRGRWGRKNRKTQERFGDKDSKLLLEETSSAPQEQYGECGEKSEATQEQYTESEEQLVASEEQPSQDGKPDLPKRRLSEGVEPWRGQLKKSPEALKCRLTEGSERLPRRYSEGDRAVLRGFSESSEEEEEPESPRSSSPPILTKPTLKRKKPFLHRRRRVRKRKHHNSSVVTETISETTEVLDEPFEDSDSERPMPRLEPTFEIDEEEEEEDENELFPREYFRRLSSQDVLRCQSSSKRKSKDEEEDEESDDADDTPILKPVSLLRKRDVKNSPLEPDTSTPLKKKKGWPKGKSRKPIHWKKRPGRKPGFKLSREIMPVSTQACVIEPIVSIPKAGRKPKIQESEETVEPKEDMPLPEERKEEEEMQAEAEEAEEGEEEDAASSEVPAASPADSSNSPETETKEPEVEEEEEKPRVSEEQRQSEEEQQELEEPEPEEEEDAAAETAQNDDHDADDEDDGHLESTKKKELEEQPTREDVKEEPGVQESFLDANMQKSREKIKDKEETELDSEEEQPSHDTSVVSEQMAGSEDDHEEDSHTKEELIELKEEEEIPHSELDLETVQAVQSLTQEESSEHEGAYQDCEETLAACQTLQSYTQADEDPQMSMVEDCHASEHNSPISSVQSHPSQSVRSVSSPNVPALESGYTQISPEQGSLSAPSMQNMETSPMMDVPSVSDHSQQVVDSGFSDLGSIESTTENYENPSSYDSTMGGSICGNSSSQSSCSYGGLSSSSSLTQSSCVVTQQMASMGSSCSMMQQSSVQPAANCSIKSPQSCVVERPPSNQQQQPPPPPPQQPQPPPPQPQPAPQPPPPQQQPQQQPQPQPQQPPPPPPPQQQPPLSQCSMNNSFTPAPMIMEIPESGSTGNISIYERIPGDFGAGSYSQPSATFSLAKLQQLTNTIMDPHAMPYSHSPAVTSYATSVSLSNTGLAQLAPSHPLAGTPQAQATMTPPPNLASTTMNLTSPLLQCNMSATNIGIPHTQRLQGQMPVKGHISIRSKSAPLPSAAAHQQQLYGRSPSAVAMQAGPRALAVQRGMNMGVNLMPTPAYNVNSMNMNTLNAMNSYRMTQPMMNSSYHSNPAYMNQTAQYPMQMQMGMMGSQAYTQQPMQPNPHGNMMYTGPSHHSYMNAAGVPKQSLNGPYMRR

[2] = molecular target: Histone acetyltransferase KAT6B (Homo sapiens, UniProt Q8WYB5); assay: as §1, with “Kat6B” for “Kat6A”, “KAT6B 25” for “ii. KAT6A 15”, “60-minute” for “45-minute”
Chain of Histone acetyltransferase KAT6B (Q8WYB5 whole entry): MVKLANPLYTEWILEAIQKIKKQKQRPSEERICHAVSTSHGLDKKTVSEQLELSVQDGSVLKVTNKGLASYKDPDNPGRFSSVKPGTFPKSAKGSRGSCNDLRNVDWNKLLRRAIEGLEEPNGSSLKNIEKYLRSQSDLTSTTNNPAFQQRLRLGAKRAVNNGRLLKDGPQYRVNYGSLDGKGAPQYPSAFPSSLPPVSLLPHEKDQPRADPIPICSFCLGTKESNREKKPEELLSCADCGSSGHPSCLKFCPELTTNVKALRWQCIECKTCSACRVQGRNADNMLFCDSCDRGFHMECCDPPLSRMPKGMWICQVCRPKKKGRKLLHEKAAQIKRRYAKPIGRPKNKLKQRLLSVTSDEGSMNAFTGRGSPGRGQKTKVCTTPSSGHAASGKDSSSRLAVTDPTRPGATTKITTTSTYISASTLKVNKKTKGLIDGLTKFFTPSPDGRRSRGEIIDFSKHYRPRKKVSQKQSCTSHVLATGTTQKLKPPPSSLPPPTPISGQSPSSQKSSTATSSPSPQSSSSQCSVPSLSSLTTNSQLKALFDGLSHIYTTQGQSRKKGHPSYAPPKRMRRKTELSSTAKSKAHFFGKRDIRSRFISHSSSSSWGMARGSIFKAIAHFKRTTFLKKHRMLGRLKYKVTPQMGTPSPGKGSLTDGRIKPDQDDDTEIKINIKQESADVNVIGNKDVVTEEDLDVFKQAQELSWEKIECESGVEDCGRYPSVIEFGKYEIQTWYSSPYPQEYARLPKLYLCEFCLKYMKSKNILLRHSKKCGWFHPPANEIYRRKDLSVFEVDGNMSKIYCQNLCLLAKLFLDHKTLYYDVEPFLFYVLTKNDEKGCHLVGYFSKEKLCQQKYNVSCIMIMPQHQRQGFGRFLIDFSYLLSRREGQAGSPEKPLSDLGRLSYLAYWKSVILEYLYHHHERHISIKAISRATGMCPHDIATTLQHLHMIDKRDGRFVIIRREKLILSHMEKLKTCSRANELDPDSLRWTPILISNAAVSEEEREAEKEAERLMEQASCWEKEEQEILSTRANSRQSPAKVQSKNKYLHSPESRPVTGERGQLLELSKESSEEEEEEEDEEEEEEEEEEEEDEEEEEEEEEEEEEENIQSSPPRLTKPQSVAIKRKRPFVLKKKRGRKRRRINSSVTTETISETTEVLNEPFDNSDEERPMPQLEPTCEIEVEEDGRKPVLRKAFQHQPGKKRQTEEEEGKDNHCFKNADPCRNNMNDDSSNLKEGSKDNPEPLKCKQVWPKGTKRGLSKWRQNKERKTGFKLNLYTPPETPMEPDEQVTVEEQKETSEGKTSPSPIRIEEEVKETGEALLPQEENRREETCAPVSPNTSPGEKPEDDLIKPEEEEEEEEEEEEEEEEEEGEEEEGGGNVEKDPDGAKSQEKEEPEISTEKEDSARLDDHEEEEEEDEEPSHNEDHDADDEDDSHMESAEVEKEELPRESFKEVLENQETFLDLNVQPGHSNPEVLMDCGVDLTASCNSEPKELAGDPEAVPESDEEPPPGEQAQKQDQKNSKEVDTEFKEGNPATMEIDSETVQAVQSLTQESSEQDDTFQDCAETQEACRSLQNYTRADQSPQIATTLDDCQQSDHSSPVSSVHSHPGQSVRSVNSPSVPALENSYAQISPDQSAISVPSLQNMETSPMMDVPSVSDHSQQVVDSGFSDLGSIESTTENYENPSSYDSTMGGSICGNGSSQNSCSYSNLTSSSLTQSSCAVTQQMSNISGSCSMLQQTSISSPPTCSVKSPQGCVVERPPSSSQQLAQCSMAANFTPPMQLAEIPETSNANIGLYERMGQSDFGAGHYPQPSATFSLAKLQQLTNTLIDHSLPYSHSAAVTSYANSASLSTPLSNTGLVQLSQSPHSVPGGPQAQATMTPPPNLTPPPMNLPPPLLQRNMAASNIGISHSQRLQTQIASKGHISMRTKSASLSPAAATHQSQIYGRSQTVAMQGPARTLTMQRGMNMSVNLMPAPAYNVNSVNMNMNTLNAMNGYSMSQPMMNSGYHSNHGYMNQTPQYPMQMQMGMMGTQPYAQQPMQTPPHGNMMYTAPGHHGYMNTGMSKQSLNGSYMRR

[3] = molecular target: Histone acetyltransferase KAT5 (Homo sapiens, UniProt Q92993); assay: as §1, with “Kat5 Assay:” for “Kat6A Assay 1:”, “KAT5 25” for “ii. KAT6A 15”, “H4” for “H3”, “30-minute” for “45-minute”
Chain of Histone acetyltransferase KAT5 (Q92993 whole entry): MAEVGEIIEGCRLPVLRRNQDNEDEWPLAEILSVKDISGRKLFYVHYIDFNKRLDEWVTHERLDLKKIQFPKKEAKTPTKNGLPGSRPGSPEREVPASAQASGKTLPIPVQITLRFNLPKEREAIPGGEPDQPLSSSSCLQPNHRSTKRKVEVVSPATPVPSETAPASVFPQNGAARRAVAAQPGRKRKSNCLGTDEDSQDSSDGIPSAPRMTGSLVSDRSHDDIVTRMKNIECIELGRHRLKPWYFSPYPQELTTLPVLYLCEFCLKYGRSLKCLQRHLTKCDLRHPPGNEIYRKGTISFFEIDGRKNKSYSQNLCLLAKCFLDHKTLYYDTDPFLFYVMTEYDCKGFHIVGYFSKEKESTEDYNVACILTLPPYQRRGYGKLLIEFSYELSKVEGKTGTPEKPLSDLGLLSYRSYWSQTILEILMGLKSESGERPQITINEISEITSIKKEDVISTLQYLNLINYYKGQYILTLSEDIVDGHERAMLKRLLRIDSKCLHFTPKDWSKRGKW

[4] = molecular target: Histone acetyltransferase KAT7 (Homo sapiens, UniProt O95251); assay: as §1, with “Kat7 Assay:” for “Kat6A Assay 1:”, “KAT7 12.5” for “ii. KAT6A 15”
[5] = molecular target: T1, Histone acetyltransferase KAT8 (Homo sapiens, UniProt Q9H7Z6); assay: as §1, with “Kat8 Assay: TBDA.” for “Kat6A Assay 1: A.”, “KAT8” for “ii. KAT6A”
T1 sequence (Q9H7Z6 whole entry): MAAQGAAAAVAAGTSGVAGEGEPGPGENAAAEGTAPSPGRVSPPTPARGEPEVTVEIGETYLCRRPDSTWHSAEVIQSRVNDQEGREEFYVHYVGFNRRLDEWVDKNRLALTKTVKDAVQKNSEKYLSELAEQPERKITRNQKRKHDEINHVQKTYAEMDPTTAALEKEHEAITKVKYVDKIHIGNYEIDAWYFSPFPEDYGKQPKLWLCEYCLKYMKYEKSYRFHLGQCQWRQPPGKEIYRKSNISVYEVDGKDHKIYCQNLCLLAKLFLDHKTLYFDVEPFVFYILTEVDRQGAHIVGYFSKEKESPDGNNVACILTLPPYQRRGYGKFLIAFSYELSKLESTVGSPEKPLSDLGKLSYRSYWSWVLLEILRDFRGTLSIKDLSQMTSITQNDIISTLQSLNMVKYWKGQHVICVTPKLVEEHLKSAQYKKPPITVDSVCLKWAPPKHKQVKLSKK

Ki [1]: 10.3 nM
Ki [2]: 60.8 nM
Ki [3]: 5980 nM
Ki [4]: 900 nM
Ki [5]: 20600 nM
SMILES: COc1cc(Cn2cccn2)cc2onc(NS(=O)(=O)c3ccccc3)c12
